The target in the experiment “PI3K (p110α/p85α)” is T1, PI3K (p110α/p85α (Homo sapiens, UniProt P42336)).
T1 construct: purchased Carna Biosciences #07CBS-0402A
Kind of experiment: PI3K activity assay (ADP Hunter Plus). It is filed as biochemical. The following applies: 50 µM ATP, 30 µM PIP2, 1 hour at 25°C; read-out: PI3Kα IC50. As for the experimental part: The kinase activity was measured by using the commercial ADP Hunter™ Plus assay available from DiscoveRx (#33-016), which is a homogeneous assay to measure the accumulation of ADP, a universal product of kinase activity. […] Reaction was carried out for 1 hour at 25°C. Reagent A and B were sequentially added to the wells and plates were incubated for 30 min at 37 °C. Fluorescence counts were read in a Victor instrument (Perkin Elmer) with the recommended settings (544 and 580 nm as excitation and emission wavelengths, respectively). Values were normalized against the control activity included for each enzyme (i.e., 100 % PI3 kinase activity, without compound). These values were plot against the inhibitor concentration and were fit to a sigmoid dose-response curve by using the Graphad software.

In another experiment the test system is HDAC. Kind of experiment: HDAC enzymatic activity (HDAC-Glo I/II Screening System, HeLa cell nuclear extracts). The following applies: HeLa cell nuclear extract, 25°C for 30 minutes. It is filed as biochemical. The protocol:
HDAC inhibitory activity was evaluated using the HDAC-Glo™ I/II Screening System from Promega (G6430) using manufacturing recommendations. The system emploies HeLa cell nuclear extracts as a source of HDAC activities. The assay uses an acetylated, live-cell-permeant, luminogenic peptide substrate that can be deacetylated by HDAC activities. Substrate deacetylation is measured by a coupled protease reaction that cleaves the peptide from aminoluciferin, which is quantified in a reaction using recombinant Ultra-Glo™ firefly luciferase. Test compounds were serially diluted in dimethylsulphoside (DMSO) and added to HeLa cell nuclear extract in the presence of the acetylated luminogenic peptide substrate and developer reagent. Reactions were incubated at 25°C for 30 minutes and luminescence was measured in the EnVision plate reader (Perkin Elmer). Data were analyzed using GraphPad Prism (v5.03) with a sigmoidal dose-response curve fitting for IC50 calculation.

Experiment [1] deals with phospho-Akt1 (Ser473) protein. Nature of the experiment: PI3K cellular activity (Elisa assay), AKT phosphorylation in SKMEL cells. In kind it is cell-based. The conditions noted are these: inhibition of phosphorylation of AKT, read-out: AKT_P_SKMEL_ELISA_EC50.
The test system of the next experiment is PC3. Kind of experiment: Antiproliferation MTT assay, PC3. It is filed as cell-based. The conditions noted are these: Homo sapiens, PC-3; Prostate. As for the experimental part: (§1) Cells were seeded at 10000-50000 cells/well in 96 plates for 16 h. On day two, nine serial 1:3 compound dilutions were made in DMSO in a 96 well plate. The compounds were added to duplicate wells in 96-well cell plates a using a FX BECKMAN robot (Beckman Coulter) and incubated at 37°C with CO2 atmosphere. After 3 days, relative numbers of viable cells were measured by MTT (Sigma) according to manufacturer's instruction and read on EndVision (Perkin Elmer). EC50 values were calculated using ActivityBase from IDBS. Drugs in combination assays were dosed starting at 4 x EC50 concentrations and continuing with serial dilutions 1:2. PI3K inhibitors and chemotherapeutic agents were added simultaneously.
(§2) An additional exemplary in vitro cell proliferation assay includes the following steps: • 1. An aliquot of 200 µl of cell culture containing optimal density (between 10^4 - 5x10^4 cells) (see Examples for cell lines and tumour type) in medium was deposited in each well of a 96-well flat bottom plates. • 2. Control wells were prepared containing medium without cells • 3. The compound was added to the experimental wells and incubated for 3 days. • 4. […] Formazan salt formed was recorded and reported in graphs as relative growth vs. cells treated only with dmso.
A general note: Tetrazolium assays rely on reduction of a dye to a coloured formazan, in cell work by metabolically active cells.

The next experiment relates to MV4:11. Kind of experiment: Antiproliferation assay, MV4:11. It is filed as cell-based. The following applies: Homo sapiens, AML, read-out: MMP MV4:11 IC50. As for the experimental part: as §1
(§3) An additional exemplary in vitro cell proliferation assay includes the following steps: • 1. An aliquot of 200 µl of cell culture containing optimal density (between 10^4 - 5x10^4 cells) (see Examples for cell lines and tumour type) in medium was deposited in each well of a 96-well flat bottom plates. • 2. Control wells were prepared containing medium without cells • 3. The compound was added to the experimental wells and incubated for 3 days. • 4. One quarter volume of MTT reagent with respect to the volume of cell culture medium present in each well was added and incubated 24h at 37°C with 5% CO2. • 5. One quarter volume of solubilisation buffer with respect to the volume of cell culture medium present in each well was added and incubated 24h at 37°C with 5% CO2. • 6. Formazan salt formed was recorded and reported in graphs as relative growth vs. cells treated only with dmso.

The test system of a further experiment is HCT 116p53 ++. Kind of experiment: Antiproliferation MTT assay, HCT 116. In kind it is cell-based. The following applies: Homo sapiens, HCT-116, Colon Cancer. The protocol:
as §1, §3

The next experiment concerns COLO206. Kind of experiment: Antiproliferation MTT assay, COLO206. In kind it is cell-based. The conditions noted are these: Colon Cancer. The protocol: as §1, §3
A further experiment has as its system HT39. Kind of experiment: Antiproliferation MTT assay, HT39. It is filed as cell-based. The conditions noted are these: Colon Cancer. The protocol:
as §1, §3

The test system of a further experiment is A549. Kind of experiment: Antiproliferation MTT assay, A549. In kind it is cell-based. The conditions noted are these: Homo sapiens, A549, Lung Cancer. The protocol: as §1, §3
Another experiment has as its system NCI H23. Nature of the experiment: Antiproliferation MTT assay, NCI H23. In kind it is cell-based. The following applies: Homo sapiens, Lung Cancer. The protocol: as §1, §3
In the next experiment the test system is NCI H1975. Kind of experiment: Antiproliferation MTT assay, NCI H1975. In kind it is cell-based. The conditions noted are these: Homo sapiens, Lung Cancer. As for the experimental part:
as §1, §3

A further experiment relates to SKMEL19. Nature of the experiment: Antiproliferation MTT assay, SKMEL19. In kind it is cell-based. The following applies: Homo sapiens, SK-MEL19, Melanoma. As for the experimental part: as §1, §3
Another experiment has as its system SKMel29. Nature of the experiment: Antiproliferation MTT assay, SKMel29. The conditions noted are these: Melanoma. It is filed as cell-based. As for the experimental part:
as §1, §3

The test system of the next experiment is U2OS. Kind of experiment: Antiproliferation MTT assay, U2OS. In kind it is cell-based. The following applies: Homo sapiens, Osteosar coma. As for the experimental part: as §1, §3
Another experiment concerns MDAMB 231. Kind of experiment: Antiproliferation MTT assay, MDAMB 231. It is filed as cell-based. The following applies: Homo sapiens, MDA-MB-231; Breast cancer. As for the experimental part:
as §1, §3

The test system of the next experiment is BT474. Kind of experiment: Antiproliferation MTT assay, BT474. It is filed as cell-based. The conditions noted are these: Homo sapiens, BT-474; Breast cancer. As for the experimental part:
as §1, §3

The test system of another experiment is Raji. Nature of the experiment: Antiproliferation MTT assay, Raji. In kind it is cell-based. The following applies: Homo sapiens, Burkitt Lymphoma. The protocol:
as §1, §3

For another experiment, the system named is Miapaca. Kind of experiment: Antiproliferation MTT assay, Miapaca. In kind it is cell-based. The conditions noted are these: Homo sapiens, MIA PaCa-2; Pancreas. The protocol: as §1, §3
Experiment [2] deals with phospho-Akt1 (Ser473) protein. Kind of experiment: PI3K cellular activity (Elisa assay), AKT phosphorylation in U2OS cells. The conditions noted are these: Homo sapiens, U20S cells, inhibition of phosphorylation of AKT, 3h treatment, read-out: AKT_P_U20S_ELISA_EC50. In kind it is cell-based. The protocol: Activity is measured as endogenous levels of phospho-Akt1 (Ser473) protein. Osteosarcoma U2OS cells are plated in 96 Poly-D-Lysine coating tissue culture plates (18.000 cells/well). After the treatment with serial dilutions of the compound during 3h, the cells are fixed directly in the wells with 4% paraformaldehyde.
After fixing, individual wells go through the same series of steps used for a conventional immunoblot: including blocking with 5% BSA, incubation with 1/1000 of primary antibody-AKT ([…]) in PBS containing 5% BSA at 4°C overnight (Cell Signalling), washing and incubation with second antibody HRP-anti-mouse IgG for 1 h at RT (Amersham). After the addition of SuperSignal ELISA Femto maximum sensitivity chemiluminescent substrate (Pierce) the results are read using a luminescence plate reader (Victor).

The next experiment deals with SW620. Nature of the experiment: Antiproliferation MTT assay, SW620. In kind it is cell-based. The following applies: Homo sapiens, SW-620; Colon Cancer. The protocol:
as §1, §2

The test system of the next experiment is NCI H460. Kind of experiment: Antiproliferation MTT assay, NCI H460. The following applies: Homo sapiens, Lung Cancer. In kind it is cell-based. The protocol: as §1, §2
The next experiment relates to MCF7. Kind of experiment: Antiproliferation MTT assay, MCF7. The following applies: Homo sapiens, Breast cancer. In kind it is cell-based. As for the experimental part:
as §1, §2

[3] abbreviates: first of two columns with the same head (c3).
Setting [4] is: first of two columns with the same head (c1).
[5] abbreviates: second of two columns with the same head (c2).

T1 sequence (P42336 whole entry): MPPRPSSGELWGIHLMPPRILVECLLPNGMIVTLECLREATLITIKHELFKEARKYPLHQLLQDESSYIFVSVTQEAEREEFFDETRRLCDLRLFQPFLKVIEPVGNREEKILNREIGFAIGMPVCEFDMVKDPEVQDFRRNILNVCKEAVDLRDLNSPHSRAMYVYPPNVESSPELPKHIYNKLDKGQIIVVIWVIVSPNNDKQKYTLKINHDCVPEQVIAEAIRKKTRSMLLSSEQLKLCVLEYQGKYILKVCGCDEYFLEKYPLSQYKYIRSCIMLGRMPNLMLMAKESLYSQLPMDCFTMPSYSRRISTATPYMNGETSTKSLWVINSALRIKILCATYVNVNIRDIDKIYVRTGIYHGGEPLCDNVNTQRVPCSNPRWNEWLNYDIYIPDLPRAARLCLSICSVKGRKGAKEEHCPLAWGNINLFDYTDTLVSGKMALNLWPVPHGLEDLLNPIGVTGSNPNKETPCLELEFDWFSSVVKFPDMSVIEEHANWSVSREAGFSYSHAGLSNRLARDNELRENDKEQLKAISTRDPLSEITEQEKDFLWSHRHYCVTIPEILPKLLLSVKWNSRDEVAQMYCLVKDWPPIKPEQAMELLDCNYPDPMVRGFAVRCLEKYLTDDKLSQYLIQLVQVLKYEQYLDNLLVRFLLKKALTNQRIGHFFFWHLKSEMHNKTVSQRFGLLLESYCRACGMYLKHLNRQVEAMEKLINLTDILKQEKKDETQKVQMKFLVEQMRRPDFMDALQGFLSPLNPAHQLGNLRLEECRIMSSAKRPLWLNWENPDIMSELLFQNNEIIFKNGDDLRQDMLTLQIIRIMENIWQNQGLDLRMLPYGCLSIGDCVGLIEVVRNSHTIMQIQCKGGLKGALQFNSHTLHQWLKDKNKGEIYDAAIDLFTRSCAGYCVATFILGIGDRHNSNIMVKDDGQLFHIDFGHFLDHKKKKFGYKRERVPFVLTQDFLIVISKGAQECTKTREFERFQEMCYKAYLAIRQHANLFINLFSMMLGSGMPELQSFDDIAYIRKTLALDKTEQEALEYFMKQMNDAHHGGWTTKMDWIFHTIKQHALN
T1 sequence (P27986 whole entry partner): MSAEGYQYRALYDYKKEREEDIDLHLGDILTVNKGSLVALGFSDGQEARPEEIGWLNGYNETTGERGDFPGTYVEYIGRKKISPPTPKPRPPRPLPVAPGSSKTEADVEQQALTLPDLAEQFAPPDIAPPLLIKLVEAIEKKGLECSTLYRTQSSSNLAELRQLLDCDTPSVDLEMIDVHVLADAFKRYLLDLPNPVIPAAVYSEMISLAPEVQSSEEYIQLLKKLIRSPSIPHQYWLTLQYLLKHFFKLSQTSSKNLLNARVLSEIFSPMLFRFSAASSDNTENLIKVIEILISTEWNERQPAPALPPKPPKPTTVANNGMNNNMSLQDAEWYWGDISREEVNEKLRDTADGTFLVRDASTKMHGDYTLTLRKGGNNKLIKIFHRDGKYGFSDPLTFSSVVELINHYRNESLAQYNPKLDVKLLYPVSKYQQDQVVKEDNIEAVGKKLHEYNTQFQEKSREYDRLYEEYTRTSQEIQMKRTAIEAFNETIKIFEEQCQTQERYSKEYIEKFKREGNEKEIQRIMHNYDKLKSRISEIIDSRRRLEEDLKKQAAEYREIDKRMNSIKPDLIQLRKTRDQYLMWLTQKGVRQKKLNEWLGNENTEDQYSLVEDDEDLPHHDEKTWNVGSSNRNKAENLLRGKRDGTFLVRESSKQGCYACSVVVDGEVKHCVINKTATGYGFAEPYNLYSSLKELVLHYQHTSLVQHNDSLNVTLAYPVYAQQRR

A word on the IC50: it is the concentration that inhibits the measured activity by half. Consider `Nc1ncc(-c2cn3cc(CNc4ncc(C(=O)NO)cn4)nc3c(N3CCOCC3)n2)cn1` [Final Compound 1], for which the IC50 on PI3K (p110α/p85α) amounted to 5.7 nM; in the experiment with HDAC it was 21.1 nM; in the experiment with PC3 it was 5760 nM; with MV4:11 it was 1150 nM; with HCT 116p53 ++ it was 7770 nM; in the experiment on HCT 116p53 ++ (setting [3]) it was 6710 nM. The IC50 in the experiment on COLO206 was found to be 5940 nM; with HT39, 34600 nM; in the experiment with A549 (setting [4]), 50800 nM; with NCI H23, 77900 nM; in the experiment with NCI H1975, 14400 nM; in the experiment with SKMEL19 (setting [4]), 3300 nM. The IC50 in the experiment with SKMEL19 (setting [5]) came to 2300 nM; in the experiment on SKMel29, 1330 nM; with U2OS, 5360 nM; in the experiment on MDAMB 231 it was 5730 nM; with BT474 it was 500 nM; with Raji, 2750 nM. In the experiment with Miapaca, the IC50 was found to be 4320 nM. Further, the EC50 in [1] was found to be 330 nM.

Regarding `Nc1ncc(-c2cn3cc(CN4CCN(c5ncc(C(=O)NO)cn5)CC4)nc3c(N3CCOCC3)n2)cn1` [Final Compound 2], the IC50 on PI3K (p110α/p85α) stood at 3.2 nM; in the experiment on HDAC, 9 nM; in the experiment with PC3, 1170 nM; in the experiment on MV4:11, 340 nM; in the experiment on HCT 116p53 ++, 670 nM; with HCT 116p53 ++ (setting [3]), 1160 nM. For the same molecule, the IC50 with COLO206 worked out at 560 nM; with SW620 it was 1340 nM; in the experiment on HT39 it was 1210 nM; in the experiment with A549 (setting [4]), 3530 nM; in the experiment on A549 (setting [5]) it was 1320 nM; in the experiment on NCI H23, 2150 nM. For the same molecule, the IC50 turned out to be 1050 nM in the experiment on NCI H1975; 2390 nM in the experiment on NCI H460; 370 nM with SKMEL19 (setting [4]); 70 nM in the experiment with SKMEL19 (setting [5]); 16 nM with SKMel29; 2110 nM in the experiment with U2OS. In addition, the IC50 was determined as 540 nM with MCF7; 560 nM in the experiment on MDAMB 231; 94 nM with BT474; 280 nM in the experiment with Raji; 630 nM in the experiment on Miapaca. Also, the EC50 in experiment [2] came to 1360 nM; in [1], 70 nM.

Take `CN(Cc1cn2cc(-c3cnc(N)nc3)nc(N3CCOCC3)c2n1)c1ncc(C(=O)NO)cn1` [Final Compound 3]: the IC50 came out at 7.5 nM at PI3K (p110α/p85α); 10.6 nM in the experiment on HDAC; 40 nM with MV4:11; 240 nM with HCT 116p53 ++; 410 nM with HCT 116p53 ++ (setting [3]); 150 nM in the experiment on COLO206. Further, the IC50 came to 400 nM with SW620; 580 nM with HT39; 1080 nM in the experiment on A549 (setting [4]); 990 nM with A549 (setting [5]); 2040 nM with NCI H23; 240 nM in the experiment on NCI H1975. In addition, the IC50 with NCI H460 turned out to be 1690 nM; in the experiment on SKMEL19 (setting [4]), 100 nM; in the experiment with SKMEL19 (setting [5]) it was 43 nM; with SKMel29 it was 16 nM; in the experiment on U2OS, 250 nM; with MCF7, 120 nM. Moreover, the IC50 in the experiment on MDAMB 231 was 180 nM; in the experiment on BT474, 19 nM; in the experiment on Raji it was 51 nM; in the experiment on Miapaca, 150 nM. Also, the EC50 in experiment [2] was found to be 26 nM; in experiment [1] it was 1940 nM.
